Laboratory results taken from patent US4749798A, “Fluoro coumarins as antilymphoedema agents” (priority 1984, dated 1988).
Entries after “also recorded” stand apart in the source; their conditions may differ. Read-outs that look alike come from different tables or passages of the source.

Columns and labels:
[1] = system: mouse peritoneal macrophages; experiment: proteolysis by mouse peritoneal macrophages; settings: for Potency ratio in the proteolytic test: 50 mg/kg i.p. in sesame oil, 10 replication, coumarin = 1; for Mean ICA-soluble fragm. (24 h-0 h) x 10^6 cell: 10 mice; for minimal effective dose: Mus musculus, Peritoneal macrophage, ip; for increase in proteolysis: at the higher doses, coumarin at similar doses
Description: Ability of the 6-fluoro coumarin itself, and the other compounds of the invention, to increase proteolysis by mouse peritoneal macrophages is shown by using the testing procedure reported by T. Bolton and J. R. Casley-Smith, Experimentia, 31, 275 (1975).
Due to the great standard error, many replications are necessary in order to obtain reliable dose-response curves.

dog liver microsomes = experiment: incubation of labelled C^14-6 fluoro coumarin with dog liver microsomes; type: in vitro ADME; settings: C^14-labelled
Description: Using the method reported by T. C. Butler et al. (Arch. Intern. Pharmacod. Ther., 228, 4 (1977)), labelled C^14 -6 fluoro coumarin was incubated with dog liver microsomes.

[2] = system: S-typhimurium TA 1535, TA 1537, TA 1538, TA 98 and TA 100; experiment: Ames test; type: cell-based
coagulation factors = experiment: coagulation parameters (DPTT, Hepato quick, clotting time); type: in vivo
lymphoedemas = experiment: preliminary experiments in humans with primary and secondary lymphoedemas; type: in vivo; settings: capsules of 50 mg
Description: So, a very restricted number of selected male and female patients, affected by primary and secondary lymphoedemas, with intact renal and hepatic functions, was treated with the compounds of the invention, particularly with 6-fluoro coumarin.
In the absence of any other therapeutic treatment, the selected schedule of treatment foresees administration of capsules, many times pro die.
The diagnostic parameters investigated are: general and gastric clinical tolerability; number of red blood cell, leukocites, neutrophiles and platelets; haemoglobin concentration, γ-glutamyl transpeptidase; serum creatinine and volume of edema.

[3] = system: carrageenan induced edema of the rats hind paw; experiment: carrageenan induced edema of the rat hind paw; type: in vivo; settings: for activity relative to coumarin: "at least 1.5-2.5 times more active than coumarin"; for reduction of carrageenan induced edema: at all the times (1; 3; 4 and 5 h)
Description: 6-fluoro coumarin and the compounds of the invention are also effective in the management of the acute inflammation.
The carrageenan edema test proposed by Winter C. A., Risley A., Noss G. W. (Proc. Soc. Exp. Biol., 101, 544, 1962) was used.
The compounds, administered i.p. 30' before the carrageenan as suspension in 1% aqueous carboxymethylcellulose homogeneized by ultrasounds, were compared with coumarin at different dose-levels on 6 animal groups. The percent reduction of the rat hind paw edema was evaluated at different times.

[4] = system: blood-dot area in right ear; experiment: re-absorption of citrated blood injected in the rabbit ear (blood-dot area); type: in vivo, New Zealand rabbits; settings: oral, placebo 20.3
Description: Finally, the compounds of the invention are able to induce re-absorption of the total citrated blood when blood is injected in the right ear of New Zealand rabbits. 12 hours after blood inoculation into ear, the animal were randomized and treated with scalar doses of the investigated compounds administered for 4 days by oral route. The blood-dot areas are evaluated and compared with the areas of the control animals treated with placebo only. In table 5 are reported some experimental results.

[5] = system: burning induced oedema of hind paws; experiment: burning induced oedema test; type: in vivo, Sprague-Dawley male rats; settings: for % inhibition / Paw volume, DV: 12 h; for activity relative to 6-fluoro coumarin (equiactive): burning induced oedema
Description: Reduction of the burning induced oedema test has been also used to evidentiate the antiinflammatory activity and the proteolytic mechanism of action of the compounds of the invention. 18 hours-fasted Sprague-Dawley male rats, body weight: 170-220 g, are used in this testing procedure. The animals are divided into five animal groups and the volume (in ml) of the posterior hind paws is measured before these paws are burnt by immersion for 22 seconds in 55° C. heated water. 15 minutes after burning, the animals are treated, by oral route, with different dosages of the investigated compounds and placebo. The volume of paws is measured 6, 12 and 18 hours after burning and the increased volume of the paws is evaluated.

S. Pombae = experiment: forward mutation in S. Pombae; type: cell-based
[6] = system: S. typhimurium (TA 1535, TA 1537, TA 1538, TA 98, TA 100); settings: cited from earlier work
[7] = cited from earlier work
coagulation = settings: Schofield; Feuer et al.; cited from earlier work
[8] = Occupational Safety and Health Administration; cited from earlier work
[9] = metabolism after oral administration to rabbits, analysis of faeces and urines over 24 hours; settings: rabbit, coumarin in similar experimental conditions
Description: In a second experiment, C^14 -labelled 6-fluoro coumarin was administered by oral route to rabbits and faeces and urines were collected during a period of 24 hours. As it is usual for metabolic studies, the excreta were treated by β-glucoronidase and aryl sulfatase and extracted by methylene chloride in a little acid medium. […] In these studies, labelled 6-fluoro coumarin having a 1 Ci/mole specific radioactivity was used.

[10] = oral, 2 consecutive days, equimolecular doses

Structure (SMILES): O=c1oc2ccc(F)cc2cc1Cl [3-Cl--6-fluoro, 6-fluoro-3-chloro-2H-1-benzopyran-2-one]
- Potency ratio in the proteolytic test [1]: 1.4

Structure (SMILES): O=c1ccc2cc(F)ccc2o1 [6-fluoro coumarin, 6-fluoro-2H-1-benzopyran-2-one]
- effects in gene mutation test (somatic mammalian cells): No kinds of effects are noticed
- metabolism by cytochromes (dog liver microsomes): not metabolized by cytochromes
- recovery of unchanged compound (dog liver microsomes): 80%
- mutagenic property in the Ames test [2]: no mutagenic property is evident
- effect on DPTT (coagulation factors; [10]): not able to modify
- effect on Hepato quick (coagulation factors; [10]): not able to modify
- effect on clotting time (coagulation factors; [10]): not able to modify
- tolerability (lymphoedemas; 10 treated patients, all dosages investigated): excellent
- patients with significant reduction of the oedema volume (lymphoedemas; of 10 treated patients): 4 patients
- activity relative to coumarin [3]: 1.5-2.5 times
- reduction of carrageenan induced edema [3]: reduce carrageenan induced edema of the rats hind paw at all the times
- Significance of difference from control ([1]; 3.12 mg/kg i.p.): NS (p > 0.05)
- Mean ICA-soluble fragm. (24 h-0 h) x 10^6 cell ([1]; 3.12 mg/kg i.p.): 0.22 mM glycin
- Significance of difference from control ([1]; 6.25 mg/kg i.p.): NS (p > 0.05)
- Mean ICA-soluble fragm. (24 h-0 h) x 10^6 cell ([1]; 6.25 mg/kg i.p.): 0.19 mM glycin
- Significance of difference from control ([1]; 12.5 mg/kg i.p.): * (0.05 > p > 0.01)
- Mean ICA-soluble fragm. (24 h-0 h) x 10^6 cell ([1]; 12.5 mg/kg i.p.): 0.29 mM glycin
- Mean ICA-soluble fragm. (24 h-0 h) x 10^6 cell ([1]; 25 mg/kg i.p.): 0.37 mM glycin
- Significance of difference from control ([1]; 50 mg/kg i.p.): * (0.05 > p > 0.01)
- Potency ratio in the proteolytic test [1]: 11.5
- Mean ICA-soluble fragm. (24 h-0 h) x 10^6 cell ([1]; 50 mg/kg i.p.): 0.34 mM glycin
- Mean ICA-soluble fragm. (24 h-0 h) x 10^6 cell ([1]; 100 mg/kg i.p.): 0.40 mM glycin
- minimal effective dose ([1]; read-out: dosage level with proteolysis significantly greater than the control): > 6.25 mg/kg
- minimal effective dose ([1]; read-out: dose from which stimulation of protein digestion starts): 12.5 mg/kg
- increase in proteolysis [1]: threefold
- % reduction of blood-dot area after 4 days ([4]; 25 mg/kg pro die): 64.13%
- % reduction of blood-dot area after 4 days ([4]; 50 mg/kg pro die): 92%
- % inhibition ([5]; 12.5 mg/kg oral): no sign
- Paw volume, DV ([5]; 12.5 mg/kg oral): 0.86 mL
- Paw volume, 12 h value ([5]; 12.5 mg/kg oral, basal 1.348): 2.207 mL
- % inhibition ([5]; 25.0 mg/kg oral): 37%
- Paw volume, DV ([5]; 25.0 mg/kg oral): 0.56 mL
- Paw volume, 12 h value ([5]; 25.0 mg/kg oral, basal 1.504): 2.060 mL
- % inhibition ([5]; 50.0 mg/kg oral): 67%
- Paw volume, DV ([5]; 50.0 mg/kg oral): 0.29 mL
- Paw volume, 12 h value ([5]; 50.0 mg/kg oral, basal 1.464): 1.760 mL
- % inhibition ([5]; 1000.0 mg/kg oral): 71%
- Paw volume, DV ([5]; 1000.0 mg/kg oral): 0.26 mL
- Paw volume, 12 h value ([5]; 1000.0 mg/kg oral, basal 1.416): 1.676 mL
- effects in forward mutation test (S. Pombae): No kinds of effects are noticed
- effects in mitotic genic conversion test (S. cerevisiae): No kinds of effects are noticed

Structure (SMILES): O=c1ccc2ccccc2o1 [coumarin, 2H-1-benzopyran-2-one]
- effects in gene mutation test (somatic mammalian cells): positive responder
- effect on Hepato quick (coagulation factors; in vivo, po): moderately influences Hepato quick (in decreasing way)
- mutagenicity [6]: weak mutagenic substance
- % Reduction of the edema by carrageenan ([3]; 1.55 mg/kg i.p., 3 h): 23%
- % Reduction of the edema by carrageenan ([3]; 3.12 mg/kg i.p., 3 h): 53%
- % Reduction of the edema by carrageenan ([3]; 3.12 mg/kg i.p., 5 h): 53.4%
- % Reduction of the edema by carrageenan ([3]; 6.25 mg/kg i.p., 3 h): 78%
- increase in proteolysis [1]: 2.2 fold
- % reduction of blood-dot area after 4 days ([4]; 50 mg/kg pro die): 67.31%
- metabolism in man [7]: extensively metabolized in man upon first pass through the liver; also recorded: C-3 hydroxylation practically absent in man
- anticoagulant activity (coagulation): anticoagulant activites
- inhibition ([5]; 50 mg/kg): 35%
- times less active than 6-fluoro coumarin ([5]; 50 mg/kg): about 2 times
- effects in forward mutation test (S. Pombae): positive responder
- effects in mitotic genic conversion test (S. cerevisiae): positive responder
- carcinogen category [8]: category I carcinogen
- metabolism (hydroxylation / lactone ring opening) [9]: metabolized by hydroxylation and also by δ-lactone ring opening; also recorded: metabolized by hydroxylation and by δ-lacton ring opening

Structure (SMILES): O=c1oc2ccc(F)cc2cc1Br [3-Br--6-fluoro, 6-fluoro-3-bromo-2H-1-benzopyran-2-one]
- activity relative to coumarin [3]: 1.5-2.5 times
- reduction of carrageenan induced edema [3]: reduce carrageenan induced edema of the rats hind paw at all the times
- Potency ratio in the proteolytic test [1]: 1.75
- % reduction of blood-dot area after 4 days ([4]; 50 mg/kg pro die): 69%
- activity relative to 6-fluoro coumarin (equiactive) [5]: 0.85-1.5 times

Structure (SMILES): O=c1ccc2cc(F)cc(F)c2o1 [6,8-difluoro, 6,8-difluoro-2H-1-benzopyran-2-one]
- Potency ratio in the proteolytic test [1]: 1.45

Structure (SMILES): CC(C)OC1C=Cc2cc(F)ccc2O1 (stereo not drawn) [6-fluoro-2.xi.-isopropoxy-2H-1-benzopyrane]
- activity relative to coumarin [3]: 1.5-2.5 times
- reduction of carrageenan induced edema [3]: reduce carrageenan induced edema of the rats hind paw at all the times
- Potency ratio in the proteolytic test [1]: 1.61
- activity relative to 6-fluoro coumarin (equiactive) [5]: 0.85-1.5 times
